Results: patent publication US20070037799A1, “Fungicide ternary active ingredient combinations” (Bayer Cropscience Aktiengesellschaft, priority 2003, published 2007)

Tested on: Erysiphe graminis f. sp. Tritici
Assay: Erysiphe test (wheat)/curative
Assay type: in vivo, Erysiphe graminis f. sp. Tritici on wheat
Conditions: curative, sprayed 48 hours after inoculation, application rate 50 g/ha of each active compound, evaluation 8 days after inoculation, 0% = control, 100% = no infection
Method: The efficacy here is determined in %. 0% denotes an efficacy which corresponds to that of the control, while an efficacy of 100% means that no infection is observed.
To produce a suitable preparation of active compound, 1 part by weight of active compound or active compound combination is mixed with the stated amounts of solvent and emulsifier, and the concentrate is diluted with water to the desired concentration.
To test for curative activity, young plants are dusted with spores of Erysiphe graminis f. sp. Tritici. 48 hours after the inoculation, the plants are sprayed with the preparation of active compound at the stated application rate.
The plants are placed in a greenhouse at a temperature of about 20° C. and a relative atmospheric humidity of about 80% to promote the development of mildew pustules.
Evaluation is carried out 8 days after the inoculation. 0% means an efficacy which corresponds to that of the control, whereas an efficacy of 100% means that no infection is observed.

SMILES | Efficacy in % found (activity found)
CON=C(C1=NOCCO1)c1ccccc1Oc1ncnc(Oc2ccccc2Cl)c1F [(I) fluoxastrobin, 3-[1-[2-(4-<2-chlorophenoxy>-5-fluoropyrimid-6-yloxy)phenyl]-1-(methoximino)methyl]-5,6-dihydro-1,4,2-dioxazine] | 11%
OC(Cc1ccccc1Cl)(Cn1nc[nH]c1=S)C1(Cl)CC1 (stereo not drawn) [(II) prothioconazole, prothioconazole] | 0%
CC(C)(C)C(O)(CCc1ccc(Cl)cc1)Cn1cncn1 (stereo not drawn) [(III) tebucinazole, tebucinazole] | 22%
